# Source: US9827229B2, “Small molecule securinine and norsecurinine analogs and their use in cancers, inflammatory diseases and infections” (INVENIO THERAPEUTICS INC., priority 2013, dated 2017)
# Where a name gives a salt, the structure may show the parent alone.
# Tested on: HL60 cells
# Assay: Differentiation of HL60 cells (Dif50)
# Type: cell-based, human
# Details: Homo sapiens, HL-60, HL-60 cells, differentiation; no unit in head or cell (other cells of the column print uM); read-out: HL-60, Dif50
# Excerpt: The tested compounds and their respective results are produced in Table 1. Those skilled in the art will appreciate that combining the securinine and/or norsecurinine analogs with other differentiation inducing agents, such as all-trans retinoic acid, cytarabine and/or an anthracycline, would be of further benefit. Those skilled in the art will appreciate that inducing differentiation may further reduce oxidative damage due to lower presence of radical inducing enzymes (see, e.g., Yamada et al. J Biol Chem 259(5)3021-3025 (1984) and Weil et al., PNAS 84:2057-2061 (1987)).
# (§1) The analogs were then tested and evaluated on the ability to affect differentiation and growth of HL60 cells.
row,Structure (SMILES),EC50
1,CC(C)CS[C@H]1CC2=CC(=O)O[C@@]23C[C@@H]1N1CCCC[C@@H]13 (stereo in doubt) [INVS-MG-55B & 57B = 37B],15 to 20 µM
2,CC(C)CS[C@@H]1CC2=CC(=O)O[C@@]23C[C@@H]1N1CCCC[C@@H]13 (stereo in doubt) [INVS-MG-57A],20 to 30 µM
3,O=C1C=C2C(c3ccccc3)=C[C@@H]3C[C@@]2(O1)[C@H]1CCCCN31 [INVG-28-1 = INVS-MG-56B],> 30 µM
4,O=C1C=C2CC(SC3CCCCC3)[C@@H]3C[C@@]2(O1)[C@H]1CCCCN31 (stereo partly shown) [INVS-MG-3B],15 to 20 µM
5,O=C1C=C2C[C@H](SCC(F)(F)F)[C@@H]3C[C@@]2(O1)[C@H]1CCCCN31 [INVS-MG-5B],> 30 µM
6,O=C1C=C2C[C@@H](SCC(F)(F)F)[C@@H]3C[C@@]2(O1)[C@H]1CCCCN31 [INVS-MG-5C],20 to 30 µM
7,O=C1C=C2CC(SCCSC3CC4=CC(=O)O[C@]45C[C@H]3N3CCCC[C@H]35)[C@@H]3C[C@@]2(O1)[C@H]1CCCCN31 (stereo partly shown) [INVS-MG-7C],10 to 15 µM
8,CCCNC1CC2=CC(=O)O[C@@]23C[C@@H]1N1CCCC[C@@H]13 (stereo partly shown) [INVS-MG-44],15 to 20 µM
9,CCN(CC)CCSC1CC2=CC(=O)O[C@@]23C[C@@H]1N1CCCC[C@@H]13 (stereo partly shown) [INVS-MG-60],15 to 20 µM
10,O=C1C=C2[C@@H]3C=CC[C@@]2(O1)[C@H]1CCCCN1O3 [INVS-MG-74A],> 30 µM

# Same assay, conditions: Homo sapiens, HL-60, read-out: HL-60, Dif50, HL-60 cells, differentiation; no unit in head or cell (other cells of the column print uM)
row,Structure (SMILES),EC50
1,COC(OC)[C@H]1CCC2N1[C@@H]1C=CC3=CC(=O)O[C@@]32C1 (stereo partly shown) [INVG-Z-27-4 = INVS-MG-52D],3.25 to 5 µM
2,O=C1CC2(SCC(F)(F)F)CC(SCC(F)(F)F)[C@@H]3C[C@@]2(O1)[C@H]1CCCCN31 (stereo partly shown) [INVS-MG-5A],5 to 7.5 µM
3,O=C1O[C@]23CC4OC4[C@H](ON4CCCC[C@@H]42)C32OC12 (stereo partly shown) [INVS-MG-76-aq],> 30 µM

# Tested on: HL60 cells
# Assay: Growth of HL60 cells (IC50)
# Type: cell-based, human
# Details: HL-60 cells, growth; no unit in head or cell (other cells of the column print uM); read-out: HL-60, IC50
# Method: as §1
row,Structure (SMILES),IC50
1,CCCN(CC#CC1=C[C@@H]2C[C@@]3(OC(=O)C=C13)[C@H]1CCCCN21)CCC [INVS-MG-152-III],< 0.03 µM

# Same assay, conditions: Homo sapiens, HL-60, HL-60 cells, growth; no unit in head or cell (other cells of the column print uM); read-out: HL-60, IC50
row,Structure (SMILES),IC50
1,O=C1C=C2C(C#Cc3ccc[n+]([O-])c3)=CC3CC2(O1)C1CCCCN31 (stereo not shown) [INV-SZ-113-2],0.15 to 0.31 µM
2,COC(OC)C1CCC2N1C1C=C(C#Cc3cccnc3)C3=CC(=O)OC32C1 (stereo not shown) [INV-SZ-114-1],0.07 to 0.15 µM
3,COC(OC)C1CCC2N1C1C=C(C#Cc3ccc[n+]([O-])c3)C3=CC(=O)OC32C1 (stereo not shown) [INV-SZ-115-1],0.15 to 0.31 µM
4,O=C1C=C2C(C#Cc3cccc[n+]3[O-])=CC3CC2(O1)C1CCCCN31 (stereo not shown) [INV-SZ-116-1],2.5 to 5 µM
5,COC(OC)C1CCC2N1C1C=C(C#Cc3ccc(N(C)C)cc3)C3=CC(=O)OC32C1 (stereo not shown) [INV-SZ-117-3],0.03 to 0.07 µM
6,O=C1C=C2C(C#Cc3ccc(CO)cc3)=CC3CC2(O1)C1CCCCN31 (stereo not shown) [INV-SZ-120-1],0.07 to 0.15 µM
7,COC(OC)C1CCC2N1C1C=C(C#Cc3ccccc3)C3=CC(=O)OC32C1 (stereo not shown) [INV-SZ-123-2],0.37 to 0.75 µM
8,O=C1C=C2C3C=CCC2(O1)C1CCCCN1O3 (stereo not shown) [INV-SZ-125-1],< 5 µM
9,O=C1C=C2C=CC3CC2(O1)C1CCCCN1O3 (stereo not shown) [INV-SZ-125-2],< 5 µM
10,O=C1C=C2C3C=CCC2(O1)C1CCC=CN1O3 (stereo not shown) [INV-SZ-125-3],< 5 µM
11,CNCC#CC1=CC2CC3(OC(=O)C=C13)C1CCCCN21 (stereo not shown) [INV-SZ-129-1],2.5 to 5 µM
12,O=CC1CCC2N1C1C=CC3=CC(=O)OC32C1 (stereo not shown) [INV-SZ-132-1],1.25 to 2.5 µM
13,O=C1C=C2C=CC3CC2(O1)C1CCC(CO)N31 (stereo not shown) [INV-SZ-132-2],0.3 to 0.6 µM
14,O=C1C=C2C(C#CCO)=CC3CC2(O1)C1CCCCN31 (stereo not shown) [INV-SZ-133-1],1.25 to 2.5 µM
15,COC(OC)C1CCC2N1C1C=C(C#CCO)C3=CC(=O)OC32C1 (stereo not shown) [INV-SZ-136-1],0.15 to 0.31 µM
16,CS(=O)(=O)NCC#CC1=CC2CC3(OC(=O)C=C13)C1CCCCN21 (stereo not shown) [INV-SZ-137-1],0.07 to 0.15 µM
17,O=C1C=C2C(I)=CC3CC2(O1)C1CCC(CO)N31 (stereo not shown) [INV-SZ-140-1],0.07 to 0.15 µM
18,COC(OC)C1CCC2N1C1C=C(C#CCNC(=O)CCl)C3=CC(=O)OC32C1 (stereo not shown) [INV-SZ-141-1],1.25 to 2.5 µM
19,O=C1C=C2C(C#CCc3ccccc3)=C[C@@H]3C[C@@]2(O1)[C@H]1CCCCN31 [INVS-MG-108-IIB],0.31 to 0.625 µM

row,Structure (SMILES),IC50
1,CCCCCCCCC#CC1=C[C@@H]2C[C@@]3(OC(=O)C=C13)[C@H]1CCCCN21 [INVS-MG-118-IIB],2.5 to 5 µM
2,O=C1C=C2C(C#CCCCCl)=C[C@@H]3C[C@@]2(O1)[C@H]1CCCCN31 [INVS-MG-119A],0.625 to 1.25 µM
3,O=C1C=C2C(/C=C(\C#CCCCCl)CCCCl)=C[C@@H]3C[C@@]2(O1)[C@H]1CCCCN31 [INVS-MG-119B],1.25 to 2.5 µM
4,O=C1C=C2C(C#Cc3cccnc3)=C[C@@H]3C[C@@]2(O1)[C@H]1CCCCN31 [INVS-MG-144B],0.31 to 0.625 µM
5,O=C1C=C2C(C#CCSc3ccccc3)=C[C@@H]3C[C@@]2(O1)[C@H]1CCCCN31 [INVS-MG-147B],0.625 to 1.25 µM
6,O=C1C=C2C(/C=C(\C#Cc3cc(C(F)(F)F)cc(C(F)(F)F)c3)c3cc(C(F)(F)F)cc(C(F)(F)F)c3)=C[C@@H]3C[C@@]2(O1)[C@H]1CCCCN31 [INVS-MG-149B],1.25 to 2.5 µM
7,O=C1C=C2C(C#Cc3cc(C(F)(F)F)cc(C(F)(F)F)c3)=C[C@@H]3C[C@@]2(O1)[C@H]1CCCCN31 [INVS-MG-149B′],1.25 to 2.5 µM
8,COc1ccc2cc(C#CC3=C[C@@H]4C[C@@]5(OC(=O)C=C35)[C@H]3CCCCN43)ccc2c1 [INVS-MG-157-III],0.07 to 0.156 µM
9,CCCCC1C(/C=C/c2ccc(OC)cc2)C2=CC(=O)O[C@@]23C[C@@H]1N1CCCC[C@@H]13 (stereo partly shown) [INVS-MG-163-IIB],< 10 µM
10,O=C1C=C2C(C#Cc3ccc(-c4ccccc4)cc3)=C[C@@H]3C[C@@]2(O1)[C@H]1CCCCN31 [INVS-MG-169-III],0.07 to 0.156 µM
11,O=C1C=C2C(C#Cc3ccc([N+](=O)[O-])cc3)=C[C@@H]3C[C@@]2(O1)[C@H]1CCCCN31 [INVS-MG-176B],0.31 to 0.625 µM
12,CCCCN(CC#CC1=C[C@@H]2C[C@@]3(OC(=O)C=C13)[C@H]1CCCCN21)CCCC [INVS-MG-179B],0.156 to 0.31 µM
13,[N-]=[N+]=Nc1ccc(C#CC2=C[C@@H]3C[C@@]4(OC(=O)C=C24)[C@H]2CCCCN32)cc1 [INVS-MG-193-III],0.156 to 0.31 µM
14,C#CC1=C[C@@H]2C[C@@]3(OC(=O)C=C13)[C@H]1CCCCN21 [INVS-MG-207A],0.07 to 0.156 µM
15,COC(OC)[C@H]1CC[C@H]2N1[C@@H]1C=C(C#Cc3ccc(N)cc3)C3=CC(=O)O[C@@]32C1 [INVS-MG-219A],0.625 to 1.25 µM
16,COc1cccc(C#CC2=C[C@@H]3C[C@@]4(OC(=O)C=C24)[C@H]2CC[C@H](C(OC)OC)N32)c1 [INVS-MG-221B],0.625 to 1.25 µM
17,COc1cc(C#CC2=C[C@@H]3C[C@@]4(OC(=O)C=C24)[C@H]2CC[C@H](C(OC)OC)N32)cc(OC)c1 [INVS-MG-222B],< 0.03 µM
18,COc1ccc(C#CC2=C[C@@H]3C[C@@]4(OC(=O)C=C24)[C@H]2CC[C@H](C(OC)OC)N32)cc1OC [INVS-MG-223B],0.156 to 0.31 µM
19,COC(OC)[C@H]1CC[C@H]2N1[C@@H]1C=C(C#Cc3ccc(CO)cc3)C3=CC(=O)O[C@@]32C1 [INVS-MG-224A],0.156 to 0.31 µM

# Same assay, conditions: Homo sapiens, HL-60, read-out: HL-60, IC50, HL-60 cells, growth
row,Structure (SMILES),IC50
1,COC(OC)[C@H]1CC[C@H]2N1[C@@H]1C=CC3=CC(=O)O[C@@]32C1 [INVS-MG-99-IVD],< 5 µM
2,COC(OC)[C@@H]1CC[C@H]2N1[C@@H]1C=C(C#Cc3cc4ccccc4c4ccccc34)C3=CC(=O)O[C@@]32C1 [INVS-MG-220C],> 5 µM

# Same assay, conditions: Homo sapiens, HL-60, read-out: HL-60, IC50, HL-60 cells, growth; no unit in head or cell (other cells of the column print uM)
row,Structure (SMILES),IC50
1,O=C1C=C2C=CC3CC2(O1)C1=C(Br)CCCN13 (stereo not shown) [INV-SZ-118-2],0.31 to 0.62 µM
2,COC(OC)[C@H]1CC[C@H]2N1[C@@H]1C=C(I)C3=CC(=O)O[C@@]32C1 [INVS-MG-99-IVB-I],0.31 to 0.625 µM
3,COC(OC)[C@H]1CC[C@H]2N1[C@@H]1C=C(I)C3=CC(=O)O[C@@]32C1 [INVS-MG-99B = 52B],0.156 to 0.31 µM
4,COC(OC)[C@H]1CC[C@H]2N1[C@@H]1C=CC3=CC(=O)O[C@@]32C1 [INVS-MG-99D = 52D],0.31 to 0.625 µM
5,CCN(CC)CC#CC1=C[C@@H]2C[C@@]3(OC(=O)C=C13)[C@H]1CCCCN21 [INVS-MG-145-V],0.07 to 0.156 µM
6,CN(C)c1ccc(C#CC2=C[C@@H]3C[C@@]4(OC(=O)C=C24)[C@H]2CCCCN32)cc1 [INVS-MG-146-IV],0.07 to 0.156 µM
7,O=C1C=C2C(C#Cc3cc4ccccc4c4ccccc34)=C[C@@H]3C[C@@]2(O1)[C@H]1CCCCN31 [INVS-MG-158-VI],0.156 to 0.31 µM
8,C[Si](C)(C)C#CC1=C[C@@H]2C[C@@]3(OC(=O)C=C13)[C@H]1CCCCN21 [INVS-MG-207-IIIA],1.25 to 2.5 µM
9,COC(OC)[C@H]1CC[C@H]2N1[C@@H]1C=C(C#Cc3cc4ccccc4c4ccccc34)C3=CC(=O)O[C@@]32C1 [INVS-MG-220B],0.156 µM

# Same assay, conditions: read-out: HL-60, IC50; HL-60 cells, growth
row,Structure (SMILES),IC50
1,COC(OC)[C@H]1CC[C@H]2N1[C@@H]1C=CC3=CC(=O)O[C@@]32C1 [INVS-MG-99-IVD-I],> 5 µM

# Same assay, conditions: read-out: HL-60, IC50; HL-60 cells, growth; no unit in head or cell (other cells of the column print uM)
row,Structure (SMILES),IC50
1,O=C1C=C2C(I)=C[C@@H]3C[C@@]2(O1)[C@H]1CCCCN31 [INVS-MG-82 = 12A HCl salt],> 2.5 µM
2,O=C1C=C2C(I)=C[C@@H]3C[C@@]2(O1)[C@H]1CCCCN31 [INVS-MG-84],> 2.5 µM
3,O=C1C=C2C(C#Cc3cc4ccccc4c4ccccc34)=C[C@@H]3C[C@@]2(O1)[C@H]1CCCCN31 [INVS-MG-158-V],< 5 µM
